# Measurements from patent US20070015733A1, “Aryl Phosphate Derivatives of d4T having Activity Against Resistant HIV Strains” (Parker Hughes Institute, priority 1998, published 2007).
# Where two headings read alike, the source gives them in different places.
# Experiments:
# HIV-1 (strain: HTLVIIIB) = test: microbe, parasite or virus in culture; format: cell-based; settings: PBMNC, read-out: PBMNC IC50 [RT]
# Description: (§1) Percent inhibition of viral replication was calculated by comparing the p24 and RT activity values from the test substance-treated infected cells with those from untreated infected cells. In parallel, the cytotoxicity of the compounds was examined using a microculture tetrazolium assay (MTA) of cell proliferation, as described.in the Zarling, Enrice, and Uckun articles Supra).
# (§2) Cellular Assays of Anti-HIV Activity and Cytotoxicity. […] Percent viral inhibition was calculated by comparing the RT activity values from the test substance-treated infected cells with RT values from untreated infected cells (i.e., virus controls).
# [1] = tested on: HIV-1 (HTLVIIIB) in TK-deficient CEM T-cells; test: Inhibition of HIV-1 replication in TK-deficient CEM T-cells (p24 / RT activity); format: cell-based; settings: TK-deficient CEM T-cells, read-out: CEM IC50 [RT]
# Description: as §1, §2
# [2] = tested on: NRTI-resistant recombinant HIV-1 isolates; test: Documented fold decreased susceptibility of recombinant HIV-1 clones; format: cell-based; settings: for mean reduction in susceptibility: mean over 6 recombinant clones; for median reduction in susceptibility: median over 6 recombinant clones
# [3] = tested on: NRTI-resistant recombinant HIV-1 isolates; settings: cited from earlier work
# [4] = tested on: NRTI-resistant recombinant HIV-1 isolates; test: p24 assay, multi-NRTI-resistant recombinant HIV-1 clones; format: cell-based
# [5] = tested on: NRTI-resistant recombinant HIV-1 isolates; test: RT activity assay, multi-NRTI-resistant recombinant HIV-1 clones; format: cell-based
# HIV-1 HTLVIIIB = test: microbe, parasite or virus in culture; settings: Human immunodeficiency virus 1, PBMC
# Description: In vitro assays of anti-HIV-1 activity. Normal human peripheral blood mononuclear cells (PBMNC) from HIV-negative donors were cultured 72 hours in RPMI 1640 supplemented with 20% (v/v) heat-inactivated fetal bovine serum (FBS), 3% interleukin-2, 2 mM L-glutamine, 25 mM HEPES, 2 g/L NaHCO3, […], and […] prior to exposure to HIV-1 at a multiplicity of infection (MOI) of 0.1 during a 1 hour adsorption period at 37° C. in a humidified 5% CO2 atmosphere. Subsequently, cells were cultured in 96-well microtiter plates ([…]; 2×10^6 cells/mL) in the presence of various concentrations of d4T phosphoramidates and aliquots of culture supernatants were removed from the wells on the 7th day after infection for p24 antigen assays, as previously described (Uckun et al., 1998, Antimicrobial Agents and Chem., 42(2):383-388). The applied p24 enzyme immunoassay (EIA) was the unmodified kinetic assay commercially available from Coulter Corporation/Immunotech, Inc. (Westbrooke, Me.), which utilizes a murine mAb to HIV core protein coated onto microwell strips to which the antigen present in the test culture supernatant samples binds. Percent viral inhibition was calculated by comparing the p24 values from untreated infected cells (i.e., virus controls).
# The anti-HIV activity of the compounds was examined by evaluating their ability to inhibit HIV replication in peripheral blood mononuclear cells using previously described procedures (Uckun et al., 1998, Antimicrobial Agents and Chem., 42(2):383-388). Percent inhibition of viral replication was calculated by comparing the p24 antigen levels from the test substance-treated infected cells with those from vehicle-treated infected cells.
# Antiviral susceptibility assays. Phenotypic drug susceptibility studies of HIV-1 isolates and strains were performed by measuring the production of the p24 gag protein in peripheral blood mononuclear cells (PBMC) from seronegative healthy volunteers in the presence of increasing concentrations of the anti-HIV agent using the quantitative Coulter HIV-1 p24 antigen ezyme immunoassay (EIA) and HIV-1 p24 Antigen Kinetic Standard (Beckman Coulter), as previously described (Uckun, 1998, Antimicrobial Agents and Chemotherapy 37(4): 835-38). Informed consent was obtained from the blood donors according to DHHS guidelines using consent forms approved by the Institutional Review Board. In brief, PBMC were cultured for 72 h in RPMI 1640 medium (Gibco) supplemented with 20% (vol/vol) heat-inactivated fetal bovine serum, 5% human interleukin-2 (Zeptometrix), 2 mM L-glutamine, 25 mM HEPES, 2 g/L NaHCO3, 100 U/ml penicillin/streptomycin (Gibco), 50 μg/ml gentamicin (Gibco), and 5 μg/ml phytohemagglutinin-P (PHA-P) (Sigma) for 24-72 hours prior to exposure to HIV at a multiplicity of infection of 0.001-0.1 during a 1-h adsorbtion period at 37±1° C. in a humidified 5-7% CO2 atmosphere. Subsequently, cells were cultured in 96-well microtiter plates (100 μl/well; 2×10^6 cells/ml, triplicate wells) in the presence of the anti-HIV agents at 6-7 different concentrations ranging from 0.0001 μM to 100 μM, and 25 μL aliquots of culture supernatants were removed from the wells on day 6 after infection for p24 EIA, as previously described (Uckun, 1998, Antimicrobial Agents and Chemotherapy, 37(4):835-38). Controls included uninfected and untreated cells (background control) and infected but untreated (virus control) cells. The p24 EIA utilizes a murine monoclonal antibody to HIV core protein used to coat microwell strips to which the antigen present in the test culture supernatant samples binds. Percent inhibition of viral replication was calculated by comparing the p24 values from the test substance-treated infected cells with p24 values from untreated infected cells (i.e., virus controls). The IC50 values were determined using the Statview statistics program (SAS Institute, Inc.).
# [6] = unit not given in Table 5 (0.04 = 40 nM)
# [7] = Human immunodeficiency virus 1, read-out: IC50 (nM), p24, recombinant clone 1617-1 (151 complex)
# [8] = Human immunodeficiency virus 1, read-out: IC50 (nM), p24, recombinant clone 4755-5
# [9] = Human immunodeficiency virus 1, read-out: IC50 (nM), p24, recombinant clone 7295-1
# [10] = Human immunodeficiency virus 1, read-out: IC50 (nM), p24, recombinant clone 7324-1
# [11] = Human immunodeficiency virus 1, read-out: IC50 (nM), p24, recombinant clone 52252-1 in Table 18, 56252-1 in Tables 19 and 20 (K65R, 151 complex)
# [12] = Human immunodeficiency virus 1, read-out: IC50 (nM), p24, recombinant clone printed 52534-1 in Table 18, 52534-2 in Tables 19 and 20 (69 insertion complex)
# [13] = Human immunodeficiency virus 1, read-out: IC50 (nM), RT, recombinant clone 1617-1
# [14] = Human immunodeficiency virus 1, read-out: IC50 (nM), RT, recombinant clone 4755-5
# [15] = Human immunodeficiency virus 1, read-out: IC50 (nM), RT, recombinant clone 7295-1
# [16] = Human immunodeficiency virus 1, read-out: IC50 (nM), RT, recombinant clone 7324-1
# [17] = Human immunodeficiency virus 1, read-out: IC50 (nM), RT, recombinant clone 52534-2
# [18] = Human immunodeficiency virus 1, read-out: IC50 (nM), RT, recombinant clone 56252-1
# [19] = Human immunodeficiency virus 1, read-out: mean IC50, RT, mean over 6 multi-NRTI-resistant clones
molecule,measurement,setting,value
3dT-5′-(para-bromophenyl methoxyalaninyl phosphate) [Compound 2d],IC50,HIV-1 (strain: HTLVIIIB); Table 4,1200 nM
same,IC50,HIV-1 (strain: HTLVIIIB); [6],1200 nM
same,IC50,[1]; Table 4,22800 nM
same,IC50,[1]; Table 5,22800 nM
COC(=O)C(C)NP(=O)(OCC1CCC(n2cc(C)c(=O)[nH]c2=O)O1)Oc1ccc(F)cc1 (mixture of isomers) [Compound 2c],IC50,HIV-1 (strain: HTLVIIIB); Table 4,3100 nM
same,IC50,[1]; Table 4,32700 nM
COC(=O)C(C)NP(=O)(OCC1CCC(n2cc(C)c(=O)[nH]c2=O)O1)Oc1ccc([N+](=O)[O-])cc1 (mixture of isomers) [Compound 2e],IC50,HIV-1 (strain: HTLVIIIB); Table 4,2000 nM
same,IC50,[1]; Table 4,22600 nM
COC(=O)[C@H](C)NP(=O)(OC[C@@H]1CC[C@H](n2cc(C)c(=O)[nH]c2=O)O1)Oc1ccccc1 (stereo partly drawn) [Compound 2a],IC50,HIV-1 (strain: HTLVIIIB); Table 4,2100 nM
same,IC50,HIV-1 (strain: HTLVIIIB); [6],2100 nM
same,IC50,[1]; Table 4,7500 nM
same,IC50,[1]; Table 5,7500 nM
"Cc1cn([C@H]2CC[C@@H](CO)O2)c(=O)[nH]c1=O [Compound 3dT, 3′-deoxythymidine]",IC50,"HIV-1 (strain: HTLVIIIB); Human immunodeficiency virus 1, Table 4",700 nM
same,IC50,"[1]; Human immunodeficiency virus 1, T-cell, Table 4",91200 nM
same,IC50,"[1]; Human immunodeficiency virus 1, T-cell, Table 5",91200 nM
COC(=O)C(C)NP(=O)(OCC1OC(n2cc(C)c(=O)[nH]c2=O)CC1N=[N+]=[N-])Oc1ccccc1 (stereo not drawn) [Compound 5a],IC50,[1]; Table 5,1700 nM
COC(=O)C(C)NP(=O)(OCC1OC(n2cc(C)c(=O)[nH]c2=O)CC1N=[N+]=[N-])Oc1ccc(OC)cc1 (stereo not drawn) [Compound 5b],IC50,HIV-1 (strain: HTLVIIIB); [6],100 nM
same,IC50,[1]; Table 5,4100 nM
Nc1nc(NC2CC2)c2ncn([C@H]3C=C[C@@H](CO)C3)c2n1 [abacavir],mean reduction in susceptibility,[2],40 fold
same,median reduction in susceptibility,[2],14.9 fold
same,Fold decreased susceptibility,[3]; recombinant clone 1617-1,>100 fold
same,Fold decreased susceptibility,[3]; recombinant clone 4755-5,7.7 fold
same,Fold decreased susceptibility,[3]; recombinant clone 7295-1,6.1 fold
same,Fold decreased susceptibility,[3]; recombinant clone 7324-1,4.2 fold
same,Fold decreased susceptibility,[3]; recombinant clone 52534-2,22 fold
same,Fold decreased susceptibility,[3]; recombinant clone 56252-1,>100 fold
O=c1[nH]cnc2c1ncn2[C@H]1CC[C@@H](CO)O1 [didanosine],mean reduction in susceptibility,[2],10.1 fold
same,median reduction in susceptibility,[2],2.9 fold
same,Fold decreased susceptibility,[3]; recombinant clone 1617-1,23 fold
same,Fold decreased susceptibility,[3]; recombinant clone 4755-5,2.4 fold
same,Fold decreased susceptibility,[3]; recombinant clone 7295-1,1.9 fold
same,Fold decreased susceptibility,[3]; recombinant clone 7324-1,1.7 fold
same,Fold decreased susceptibility,[3]; recombinant clone 52534-2,3.3 fold
same,Fold decreased susceptibility,[3]; recombinant clone 56252-1,28 fold
CC(C)(C)NC(=O)[C@@H]1CN(Cc2cccnc2)CCN1C[C@@H](O)C[C@@H](Cc1ccccc1)C(=O)N[C@H]1c2ccccc2C[C@H]1O [indinavir],IC50,[4]; [7],20.5 nM
same,IC50,[4]; [8],9.4 nM
same,IC50,[4]; [9],17.2 nM
same,IC50,[4]; [10],21.8 nM
same,IC50,[4]; [11],9 nM
same,IC50,[4]; [12],36.5 nM
same,IC50,[5]; [13],5.2 nM
same,IC50,[5]; [14],4.8 nM
same,IC50,[5]; [15],1.4 nM
same,IC50,[5]; [16],5.7 nM
same,IC50,[5]; [17],12.2 nM
same,IC50,[5]; [18],3.7 nM
same,IC50,[5]; [19],5.5 ± 1.5 nM
Nc1ccn([C@@H]2CS[C@H](CO)O2)c(=O)n1 [lamivudine],IC50,[4]; [7],> 10000 nM
same,IC50,[4]; [8],> 10000 nM
same,IC50,[4]; [9],> 10000 nM
same,IC50,[4]; [10],800 nM
same,IC50,[4]; [11],> 10000 nM
same,IC50,[4]; [12],> 10000 nM
same,IC50,HIV-1 HTLVIIIB,40 ± 25 nM
same,IC90,HIV-1 HTLVIIIB,1820 ± 747 nM
same,mean reduction in susceptibility,[2],215.5 fold
same,median reduction in susceptibility,[2],300 fold
same,IC50,[5]; [13],> 10000 nM
same,IC50,[5]; [14],> 10000 nM
same,IC50,[5]; [15],> 10000 nM
same,IC50,[5]; [16],634 nM
same,IC50,[5]; [17],> 10000 nM
same,IC50,[5]; [18],7210 nM
same,IC50,[5]; [19],7970 ± 1540 nM
C[C@H](Cn1cnc2c(N)ncnc21)OCP(=O)(O)O [tenofovir],mean reduction in susceptibility,[2],4.9 fold
same,median reduction in susceptibility,[2],3.3 fold
same,Fold decreased susceptibility,[3]; recombinant clone 1617-1,2.4 fold
same,Fold decreased susceptibility,[3]; recombinant clone 4755-5,2.3 fold
same,Fold decreased susceptibility,[3]; recombinant clone 7295-1,1.1 fold
same,Fold decreased susceptibility,[3]; recombinant clone 7324-1,8.1 fold
same,Fold decreased susceptibility,[3]; recombinant clone 52534-2,4.2 fold
same,Fold decreased susceptibility,[3]; recombinant clone 56252-1,11 fold
